Results on three molecules are retold here after patent US20110015119A1, “NOVEL SEMI-SYNTHETIC GLYCOPEPTIDES AS ANTIBACTERIAL AGENTS” (LEAD THERAPEUTICS, INC., priority 2009, published 2011).

Converted amounts (≈) assume the structure as drawn. Where two headings read alike, the source gives them in different places.

As a reminder, the MIC is the least concentration at which growth counts as inhibited.

Common to all, as to type: cell-based
Test [1] concerns Staphylococcus aureus 2012 (VISA). In words: MIC by broth microdilution, SA 2012. The conditions noted are these: class symbols. On the procedure:
(§1) Antibacterial activity in vitro is investigated by broth microdilution method in Meuller-Hinton broth as recommended by NCCLS. All strains tested are clinical isolates either sensitive or resistant to natural glycopeptides. MIC values were determined using the CLSI-recommended broth microdilution procedure (Clinical and Laboratory Standards Institute, Methods for Dilution Antimicrobial Susceptibility Tests for Bacteria That Grow Aerobically; Approved Standard-Seventh Edition.). Automated liquid handlers (Multidrop 384, Labsystems, Helsinki, Finland; Biomek 2000 and Multimek 96, Beckman Coulter, Fullerton Calif.) were used to conduct serial dilutions and liquid transfers. The MIC value for vancomycin is given for comparison. The abbreviations for organisms tested are as follow: SA 100—Staphylococcus aureus 100 (ATCC 29213); SA 757—Staphylococcus aureus 757 (MRSA); SA 2012—Staphylococcus aureus 2012 (VISA); SE 835—Staphylococcus epidermidis 835; SE 831—Staphylococcus epidermidis 831 (MRSE); EFc 101—Enterococcus faecalis 101 (ATCC 29212); EFc 848—Enterococcus faecalis 848 (VRE, Van A); EFcm 800—Enterococcus faecium 800; EFcm 752—Enterococcus faecium 752 (VRE, Van A); SPNE 1195—Streptococcus pneumoniae 1195 (ATCC 49619); SPY 712—Streptococcus pyogenes 712.
For orientation: Broth dilution looks for growth in wells or tubes with falling amounts of substance.

Test [2] deals with Enterococcus faecalis 848 (VRE, Van A). Kind of test: MIC by broth microdilution, EFc 848. The settings on record: class symbols. The protocol:
as §1

The test system of test [3] is Streptococcus pneumoniae 1195 (ATCC 49619). Kind of test: MIC by broth microdilution, SPNE 1195. The protocol: as §1
Test [4] deals with Staphylococcus aureus 100 (ATCC 29213). Kind of test: MIC by broth microdilution, SA 100. On the procedure:
as §1

The test system of test [5] is Staphylococcus aureus 757 (MRSA). In words: MIC by broth microdilution, SA 757. The settings on record: read-out: MIC SA 757. On the procedure:
as §1

In test [6] the test system is Enterococcus faecium 752 (VRE, Van A). In words: MIC by broth microdilution, EFcm 752. The settings on record: class symbols. The protocol:
as §1

Test [7] relates to Staphylococcus epidermidis 835. In words: MIC by broth microdilution, SE 835. The protocol:
as §1

A further test has as its system Enterococcus faecium 800. In words: MIC by broth microdilution, EFcm 800. On the procedure: as §1
For test [8], the system named is Enterococcus faecalis 101 (ATCC 29212). Kind of test: MIC by broth microdilution, EFc 101. The conditions noted are these: class symbols. On the procedure: as §1
For test [9], the system named is Staphylococcus epidermidis 831 (MRSE). In words: MIC by broth microdilution, SE 831. The settings on record: read-out: MIC SE 831. The protocol:
as §1

Test [10] concerns Streptococcus pyogenes 712. In words: MIC by broth microdilution, SPY 712. The protocol: as §1
Where [11] appears, read: Staphylococcus aureus 2012 (VISA), read-out: MIC SA 2012.
Where [12] appears, read: Enterococcus faecalis 848 (VRE, Van A), read-out: MIC E FC 848.
Where [13] appears, read: ATCC49619, Streptococcus pneumoniae 1195 (ATCC 49619), class symbols, read-out: MIC S PNE 1195.
[14] abbreviates: ATCC29213, Staphylococcus aureus 100 (ATCC 29213), class symbols, read-out: MIC SA 100.
Setting [15] is: Staphylococcus aureus 757 (MRSA), class symbols.
Setting [16] is: Enterococcus faecium 752 (VRE, Van A), read-out: MIC E FCM 752.
Setting [17] is: Staphylococcus epidermidis 835, class symbols, read-out: MIC SE 835.
Setting [18] is: Enterococcus faecium 800, class symbols, read-out: MIC E FCM 800.
The mark [19] stands for this setting: ATCC29212, Enterococcus faecalis 101 (ATCC 29212), read-out: MIC E FC 101.
Where [20] appears, read: Staphylococcus epidermidis 831 (MRSE), class symbols.
[21] abbreviates: Streptococcus pyogenes 712, class symbols, read-out: MIC S PYO 712.

With `CCCCCCc1ccc(S(=O)(=O)NCCCCCCNCc2c(O)cc3c(c2O)-c2cc(ccc2O)[C@H]2NC(=O)[C@@H]4NC(=O)[C@H](CC(N)=O)NC(=O)[C@H](NC(=O)[C@@H](CC(C)C)NC)[C@H](O)c5ccc(c(Cl)c5)Oc5cc4cc(c5O[C@@H]4O[C@H](CO)[C@@H](O)[C@H](O)[C@H]4O[C@H]4C[C@]5(C)NC(=O)O[C@@H]5[C@H](C)O4)Oc4ccc(cc4Cl)[C@@H](O)[C@H](NC2=O)C(=O)N[C@@H]3C(=O)O)cc1` (atropisomer, axis not shown) [Compound 305], the MIC in test [1] (setting [11]) fell in the range of 0.01 to 0.5 µg/mL (≈ 0.00547 to 0.274 µM); in [2] (setting [12]) it was 8 to 16 µg/mL (≈ 4.38 to 8.75 µM); in test [3] (setting [13]) it was 0.01 to 0.5 µg/mL (≈ 0.00547 to 0.274 µM); in test [4] (setting [14]), 0.01 to 0.5 µg/mL (≈ 0.00547 to 0.274 µM); in [5] (setting [15]) it was 0.01 to 0.5 µg/mL (≈ 0.00547 to 0.274 µM); in test [6] (setting [16]), 1 to 2 µg/mL (≈ 0.547 to 1.09 µM). Further, the MIC (in [7] (setting [17]); in the test with Enterococcus faecium 800 (setting [18]); in test [8] (setting [19]); in [9] (setting [20]); in test [10] (setting [21])) was 0.01 to 0.5 µg/mL (≈ 0.00547 to 0.274 µM) throughout.

With `CCCCCCc1ccc(S(=O)(=O)NCCOCCNCc2c(O)cc3c(c2O)-c2cc(ccc2O)[C@H]2NC(=O)[C@@H]4NC(=O)[C@H](CC(N)=O)NC(=O)[C@H](NC(=O)[C@@H](CC(C)C)NC)[C@H](O)c5ccc(c(Cl)c5)Oc5cc4cc(c5O[C@@H]4O[C@H](CO)[C@@H](O)[C@H](O)[C@H]4O[C@H]4C[C@]5(C)NC(=O)O[C@@H]5[C@H](C)O4)Oc4ccc(cc4Cl)[C@@H](O)[C@H](NC2=O)C(=O)N[C@@H]3C(=O)O)cc1` (atropisomer, axis not shown) [Compound 308], the MIC in test [1] (setting [11]) was 0.5 to 1 µg/mL (≈ 0.275 to 0.551 µM); in [2] (setting [12]), more than 16 µg/mL; in test [3] (setting [13]), 0.01 to 0.5 µg/mL (≈ 0.00551 to 0.275 µM); in test [4] (setting [14]), 0.01 to 0.5 µg/mL (≈ 0.00551 to 0.275 µM); in test [5] (setting [15]), 0.01 to 0.5 µg/mL (≈ 0.00551 to 0.275 µM); in test [6] (setting [16]), 4 to 8 µg/mL (≈ 2.2 to 4.41 µM). The MIC (in test [7] (setting [17]); in the test on Enterococcus faecium 800 (setting [18]); in test [8] (setting [19]); in [9] (setting [20]); in [10] (setting [21])) was 0.01 to 0.5 µg/mL (≈ 0.00551 to 0.275 µM) throughout.

Take `CCCCCOc1ccc(S(=O)(=O)NCCCCCCNC(=O)Oc2cc(O)c3c(c2)[C@@H](C(=O)O)NC(=O)[C@H]2NC(=O)[C@H](NC(=O)[C@@H]4NC(=O)[C@H](CC(N)=O)NC(=O)[C@H](NC(=O)[C@@H](CC(C)C)NC)[C@H](O)c5ccc(c(Cl)c5)Oc5cc4cc(c5O[C@@H]4O[C@H](CO)[C@@H](O)[C@H](O)[C@H]4O[C@H]4C[C@](C)(N)[C@H](O)[C@H](C)O4)Oc4ccc(cc4Cl)[C@H]2O)c2ccc(O)c-3c2)cc1` (atropisomer, axis not shown) [Compound 322]: the MIC in test [1] (Staphylococcus aureus, VISA, read-out: MIC SA 2012, Staphylococcus aureus 2012 (VISA)) is 1 to 2 µg/mL (≈ 0.55 to 1.1 µM); in [2] (Enterococcus faecalis, VRE, read-out: MIC E FC 848, Enterococcus faecalis 848 (VRE, Van A)), 8 to 16 µg/mL (≈ 4.4 to 8.8 µM); in test [3] (Streptococcus pneumoniae, ATCC49619, read-out: MIC S PNE 1195) it was 0.01 to 0.5 µg/mL (≈ 0.0055 to 0.275 µM); in test [4] (Staphylococcus aureus, ATCC29213, read-out: MIC SA 100) it was 0.01 to 0.5 µg/mL (≈ 0.0055 to 0.275 µM); in test [5] (Staphylococcus aureus, MRSA) it was 0.01 to 0.5 µg/mL (≈ 0.0055 to 0.275 µM); in [6] (Enterococcus faecium, VRE, read-out: MIC E FCM 752, Enterococcus faecium 752 (VRE, Van A)), 2 to 4 µg/mL (≈ 1.1 to 2.2 µM). Also, the MIC in [7] (Staphylococcus epidermidis, 835, read-out: MIC SE 835) fell in the range of 0.01 to 0.5 µg/mL (≈ 0.0055 to 0.275 µM); with Enterococcus faecium 800 (Enterococcus faecium, 800, read-out: MIC E FCM 800), 0.01 to 0.5 µg/mL (≈ 0.0055 to 0.275 µM); in test [8] (Enterococcus faecalis, ATCC29212, read-out: MIC E FC 101, Enterococcus faecalis 101 (ATCC 29212)) it was 0.01 to 0.5 µg/mL (≈ 0.0055 to 0.275 µM); in [9] (Staphylococcus epidermidis, MRSE), 0.01 to 0.5 µg/mL (≈ 0.0055 to 0.275 µM); in [10] (Streptococcus pyogenes, 712, read-out: MIC S PYO 712), 0.01 to 0.5 µg/mL (≈ 0.0055 to 0.275 µM).
